Assay results reported in the CheMixHub ionic liquid set.
± gives the uncertainty stated by the source.

Assay: xn = mol fraction of the nth substance listed
Details: 101 kPa

CCCCCCCCCCCCCCCC[n+]1ccccc1.O=C([O-])C(O)c1ccccc1 + NCC(=O)O + O
electrical conductivity [S/m]
Details | 293.15 K | 298.15 K | 303.15 K | 308.15 K | 313.15 K
x1 = 1.08e-06, x2 = 0 | 0.00061 ± 0.00098 | 0.00068 ± 0.0011 | 0.00076 ± 0.0012 | 0.00083 ± 0.0013 | 0.0009 ± 0.0015
x1 = 1.09e-06, x2 = 0.001799 | 0.00103 ± 0.00086 | 0.00118 ± 0.00098 | 0.0013 ± 0.0011 | 0.0015 ± 0.0012 | 0.0017 ± 0.0013
x1 = 1.26e-06, x2 = 0.0009002 | 0.00083 ± 0.00078 | 0.00094 ± 0.00092 | 0.00106 ± 0.00099 | 0.0012 ± 0.0011 | 0.0013 ± 0.0012
x1 = 1.98e-06, x2 = 0 | 0.001 ± 0.001 | 0.0012 ± 0.0012 | 0.0013 ± 0.0013 | 0.0014 ± 0.0014 | 0.0016 ± 0.0015
x1 = 2.17e-06, x2 = 0.001799 | 0.00151 ± 0.00085 | 0.00172 ± 0.00096 | 0.0019 ± 0.0011 | 0.0022 ± 0.0012 | 0.0024 ± 0.0013
x1 = 2.35e-06, x2 = 0.0009002 | 0.00125 ± 0.00084 | 0.00142 ± 0.00094 | 0.0016 ± 0.001 | 0.0018 ± 0.0011 | 0.0019 ± 0.0013
x1 = 2.88e-06, x2 = 0 | 0.00147 ± 0.00099 | 0.0016 ± 0.0011 | 0.0018 ± 0.0012 | 0.002 ± 0.0014 | 0.0022 ± 0.0015
x1 = 3.26e-06, x2 = 0.001799 | 0.00188 ± 0.00089 | 0.0022 ± 0.001 | 0.0024 ± 0.0011 | 0.0027 ± 0.0012 | 0.003 ± 0.0014
x1 = 3.43e-06, x2 = 0.0009002 | 0.00163 ± 0.00084 | 0.00185 ± 0.00094 | 0.0021 ± 0.001 | 0.0023 ± 0.0011 | 0.0025 ± 0.0013
x1 = 3.96e-06, x2 = 0 | 0.0019 ± 0.001 | 0.0022 ± 0.0011 | 0.0024 ± 0.0013 | 0.0026 ± 0.0014 | 0.0029 ± 0.0015
x1 = 4.35e-06, x2 = 0.001799 | 0.00233 ± 0.00087 | 0.00265 ± 0.00099 | 0.0029 ± 0.0011 | 0.0033 ± 0.0012 | 0.0036 ± 0.0013
x1 = 4.52e-06, x2 = 0.0009002 | 0.00209 ± 0.00084 | 0.00237 ± 0.00093 | 0.0026 ± 0.001 | 0.0029 ± 0.0011 | 0.0032 ± 0.0013
x1 = 4.69e-06, x2 = 0 | 0.0023 ± 0.001 | 0.0026 ± 0.0011 | 0.0029 ± 0.0013 | 0.0031 ± 0.0014 | 0.0035 ± 0.0015
x1 = 5.26e-06, x2 = 0.001799 | 0.00273 ± 0.00087 | 0.00308 ± 0.00099 | 0.0034 ± 0.0011 | 0.0038 ± 0.0012 | 0.0042 ± 0.0013
x1 = 5.78e-06, x2 = 0.0009002 | 0.00258 ± 0.00088 | 0.00291 ± 0.00099 | 0.0032 ± 0.0011 | 0.0036 ± 0.0012 | 0.004 ± 0.0013
x1 = 5.95e-06, x2 = 0 | 0.00281 ± 0.00098 | 0.0032 ± 0.0011 | 0.0035 ± 0.0012 | 0.0038 ± 0.0013 | 0.0042 ± 0.0015
x1 = 6.52e-06, x2 = 0.001799 | 0.0032 ± 0.00087 | 0.00363 ± 0.00097 | 0.004 ± 0.0011 | 0.0045 ± 0.0012 | 0.005 ± 0.0014
x1 = 7.05e-06, x2 = 0.0009002 | 0.00305 ± 0.00082 | 0.00343 ± 0.00092 | 0.0038 ± 0.001 | 0.0042 ± 0.0011 | 0.0046 ± 0.0013
x1 = 7.21e-06, x2 = 0 | 0.00341 ± 0.00095 | 0.0038 ± 0.0011 | 0.0042 ± 0.0012 | 0.0046 ± 0.0013 | 0.0051 ± 0.0015
x1 = 8.16e-06, x2 = 0.001799 | 0.00379 ± 0.00082 | 0.00429 ± 0.00093 | 0.0048 ± 0.001 | 0.0053 ± 0.0012 | 0.0059 ± 0.0013
x1 = 8.31e-06, x2 = 0.0009002 | 0.00355 ± 0.0008 | 0.00401 ± 0.00091 | 0.0045 ± 0.001 | 0.0049 ± 0.0011 | 0.0054 ± 0.0013
x1 = 8.83e-06, x2 = 0 | 0.00406 ± 0.00092 | 0.0046 ± 0.001 | 0.005 ± 0.0011 | 0.0055 ± 0.0013 | 0.006 ± 0.0014
x1 = 9.79e-06, x2 = 0.001799 | 0.00435 ± 0.00082 | 0.00491 ± 0.00092 | 0.0055 ± 0.001 | 0.0061 ± 0.0012 | 0.0068 ± 0.0013
x1 = 9.94e-06, x2 = 0.0009002 | 0.00404 ± 0.00079 | 0.00455 ± 0.00089 | 0.0051 ± 0.001 | 0.0056 ± 0.0011 | 0.0063 ± 0.0013
x1 = 1.045e-05, x2 = 0 | 0.00469 ± 0.00089 | 0.0053 ± 0.001 | 0.0058 ± 0.0011 | 0.0065 ± 0.0012 | 0.0071 ± 0.0014
x1 = 1.124e-05, x2 = 0.001799 | 0.00472 ± 0.00079 | 0.00536 ± 0.00089 | 0.006 ± 0.001 | 0.0067 ± 0.0011 | 0.0075 ± 0.0013
x1 = 1.138e-05, x2 = 0.0009002 | 0.00443 ± 0.00071 | 0.00502 ± 0.00081 | 0.00561 ± 0.00091 | 0.0062 ± 0.001 | 0.007 ± 0.0012
x1 = 1.207e-05, x2 = 0 | 0.00516 ± 0.00088 | 0.0058 ± 0.001 | 0.0064 ± 0.0011 | 0.0071 ± 0.0012 | 0.0079 ± 0.0014
x1 = 1.269e-05, x2 = 0.001799 | 0.00515 ± 0.00077 | 0.00581 ± 0.00088 | 0.0065 ± 0.00098 | 0.0073 ± 0.0011 | 0.0081 ± 0.0012
x1 = 1.283e-05, x2 = 0.0009002 | 0.00481 ± 0.00072 | 0.00543 ± 0.00081 | 0.00607 ± 0.00091 | 0.0068 ± 0.001 | 0.0076 ± 0.0011
x1 = 1.351e-05, x2 = 0 | 0.00562 ± 0.00086 | 0.00631 ± 0.00097 | 0.007 ± 0.0011 | 0.0077 ± 0.0012 | 0.0085 ± 0.0013
x1 = 1.41e-05, x2 = 0.0009002 | 0.00512 ± 0.00074 | 0.0058 ± 0.00083 | 0.00647 ± 0.00092 | 0.0072 ± 0.001 | 0.008 ± 0.0011
x1 = 1.414e-05, x2 = 0.001799 | 0.00553 ± 0.0008 | 0.00625 ± 0.0009 | 0.007 ± 0.001 | 0.0078 ± 0.0011 | 0.0087 ± 0.0012
x1 = 1.478e-05, x2 = 0 | 0.00603 ± 0.0009 | 0.0068 ± 0.001 | 0.0075 ± 0.0011 | 0.0083 ± 0.0012 | 0.0092 ± 0.0013
x1 = 1.54e-05, x2 = 0.001799 | 0.00584 ± 0.0008 | 0.0066 ± 0.00092 | 0.0074 ± 0.001 | 0.0083 ± 0.0012 | 0.0092 ± 0.0013
x1 = 1.554e-05, x2 = 0.0009002 | 0.0055 ± 0.00096 | 0.00621 ± 0.00094 | 0.0069 ± 0.001 | 0.0077 ± 0.0012 | 0.0086 ± 0.0014
x1 = 1.622e-05, x2 = 0 | 0.00644 ± 0.00092 | 0.0072 ± 0.001 | 0.008 ± 0.0011 | 0.0089 ± 0.0013 | 0.0098 ± 0.0014
x1 = 1.667e-05, x2 = 0.001799 | 0.00618 ± 0.00083 | 0.00697 ± 0.00093 | 0.0078 ± 0.0011 | 0.0087 ± 0.0012 | 0.0097 ± 0.0013
x1 = 1.681e-05, x2 = 0.0009002 | 0.0058 ± 0.001 | 0.00657 ± 0.00098 | 0.0073 ± 0.0011 | 0.0082 ± 0.0012 | 0.0091 ± 0.0015
x1 = 1.766e-05, x2 = 0 | 0.00687 ± 0.00093 | 0.0077 ± 0.001 | 0.0085 ± 0.0012 | 0.0094 ± 0.0013 | 0.0104 ± 0.0014
